Data on 30 compounds can be found in patent US12568972B2, “Pyridazinol compounds and derivatives, preparation methods, herbicidal compositions and applications thereof” (Qingdao Kingagroot Chemical Compound Co., Ltd., priority 2018, dated 2026).

Assay type in all cases: in vivo
In one test the test system is Veronica polita. Nature of the test: Post-emergence test, weed control effect. The settings on record: after 3 weeks; for inhibition at 300 g/ha: Veronica polita, 504 h, fresh weight inhibition, read-out: activity level of harmful plant destruction (growth inhibition rate), Veronica polita. In short, it runs like this: (§1)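 Weeds grown from seed in soil-filled pots in a greenhouse were sprayed at the 2-3 leaf stage, 2-3 weeks after sowing, with compound in acetone/Tween-80/water plus 80% vegetable oil methyl ester synergist at 1500 g/ha. Fresh-weight inhibition was scored on a 0-10 scale after 3 weeks.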

For the next test, the system named is Rorippa indica. Nature of the test: Post-emergence test, weed control effect. The settings on record: after 3 weeks; for inhibition at 300 g/ha: Rorippa indica, 504 h, fresh weight inhibition, read-out: activity level of harmful plant destruction (growth inhibition rate), Rorippa indica. The method, boiled down: as §1
The subject of a further test is Galium aparine. Nature of the test: Post-emergence test, weed control effect. The settings on record: 504 h, Dose 300 g/ha, after 3 weeks, fresh weight inhibition, read-out: activity level of harmful plant destruction (growth inhibition rate), Galium aparine. The method, boiled down: as §1
For a further test, the system named is Setaria viridis. Nature of the test: Post-emergence test, weed control effect. The settings on record: 504 h, Dose 300 g/ha, after 3 weeks, fresh weight inhibition, read-out: activity level of harmful plant destruction (growth inhibition rate), Setaria viridis. The method, boiled down:
as §1

A further test deals with Chenopodiaceae. Nature of the test: Post-emergence test, weed control effect. The settings on record: after 3 weeks; for inhibition at 300 g/ha: 504 h, fresh weight inhibition, read-out: activity level of harmful plant destruction (growth inhibition rate), Chenopodiaceae. The method, boiled down:
as §1

A further test concerns Echinochloa crus-galli. Nature of the test: Post-emergence test, weed control effect. The settings on record: 504 h, Dose 300 g/ha, after 3 weeks, fresh weight inhibition, read-out: activity level of harmful plant destruction (growth inhibition rate), Echinochloa crus-galli. In short, it runs like this: as §1
In the next test the test system is weeds. Nature of the test: Control effect and synergistic effect of the mixture of (i) and (ii), postemergence (Gowing method). The text has this:
Wherein, in the formula, X represented the fresh weight inhibition rate of the active ingredient A in a dosage of P, and Y represented the fresh weight inhibition rate of the active ingredient B in a dosage of Q. The statistic results are shown in Table 6.

The test system of a further test is Amaranthus retroflexus. Nature of the test: Post-emergence test, weed control effect. The settings on record: after 3 weeks. In short, it runs like this:
as §1

The mark [1] stands for this setting: Abutilon theophrasti, 30 g a.i./ha, postemergence, 20 days after treatment.
Where [2] appears, read: post-emergence, 480 h, Abutilon theophrasti, 30 g a.i./ha, postemergence, 20 days after treatment, read-out: Inhibitory effect of component (ii) when applied alone at same dose.
Setting [3] is: Abutilon theophrasti, 50 g a.i./ha, postemergence, 20 days after treatment.
[4] abbreviates: post-emergence, 480 h, Abutilon theophrasti, 50 g a.i./ha, postemergence, 20 days after treatment, read-out: Inhibitory effect of component (ii) when applied alone at same dose.
Setting [5] is: Abutilon theophrasti, 5 g a.i./ha, postemergence, 20 days after treatment.

Like-named read-outs stand apart in the source and are kept apart here.

In the case of `Oc1cc(Cl)nnc1-c1ccccc1` [A, reference compound], the inhibition (usually the percentage by which the read-out fell short of the control) at 300 g/ha in the test on Veronica polita was 30 to 40%; in the test with Rorippa indica, 20 to 30%; in the test with Galium aparine, 50 to 60%; in the test with Setaria viridis, 30 to 40%; with Chenopodiaceae it was 50 to 60%; with Echinochloa crus-galli it was 0%.
Regarding `CCCCCCCCSC(=O)Oc1cc(Cl)nnc1-c1ccccc1` [B, reference compound], the inhibition at 300 g/ha with Veronica polita is 30 to 40%; in the test on Rorippa indica, 30 to 40%; in the test on Galium aparine, 40 to 50%; with Setaria viridis, 30 to 40%; in the test on Chenopodiaceae it was 30 to 40%; with Echinochloa crus-galli, 0%.
`Cn1nc(-c2cc(O)c(Cl)cc2Cl)c(=O)cc1C(F)(F)F` [C, reference compound]: the inhibition at 300 g/ha in the test with Veronica polita was 20 to 30%; with Rorippa indica, 30 to 40%; in the test with Galium aparine it was 20 to 30%; with Setaria viridis, 0%; in the test with Chenopodiaceae, 30 to 40%; with Echinochloa crus-galli, 0%.
As to `Oc1cc(C(F)(F)F)nnc1-c1ccccc1` [Compound 1], the “Inhibitory effect of component (i) when applied alone at same dose” value in the test with weeds (setting [1]) came to 20; with weeds (Galinsoga parviflora, 30 g a.i./ha, postemergence, 20 days after treatment), 30; in the test on weeds (Galium aparine, 30 g a.i./ha, postemergence, 20 days after treatment) it was 20; in the test with weeds (Sisymbrium sophia, 30 g a.i./ha, postemergence, 20 days after treatment), 20; with weeds (Veronica polita, 30 g a.i./ha, postemergence, 20 days after treatment) it was 30. Also, in the test with Veronica polita (dose 2000 g/ha), the “weed control effect (activity level), Veronica polita” value was determined as 10. Also, in the test with Rorippa indica (dose 2000 g/ha), the “weed control effect (activity level), Rorippa indica” value is reported as 10. In addition, the “weed control effect (activity level), Amaranthus retroflexus” value in the test with Amaranthus retroflexus (dose 2000 g/ha) is given as 10. Besides, the “weed control effect (activity level), Chenopodiaceae” value in the test on Chenopodiaceae (dose 2000 g/ha) is 8 (Level 8: above 80% growth inhibition rate).
As for `Oc1cc(C(F)(F)F)nnc1C1=CCCCC1` [Compound 1524], in the test on Veronica polita (Dose 3000 g/ha), the “weed control effect (activity level), Veronica polita” value is recorded as 10. The inhibition at 300 g/ha is 90 to 100% in the test on Veronica polita; 100% in the test on Rorippa indica; 90 to 100% with Galium aparine; 100% in the test on Setaria viridis; 100% in the test on Chenopodiaceae. In the test on Rorippa indica (Dose 3000 g/ha), the “weed control effect (activity level), Rorippa indica” value is 10. Moreover, in the test on Amaranthus retroflexus (Dose 3000 g/ha), the “weed control effect (activity level), Amaranthus retroflexus” value was determined as 10. In addition, the “weed control effect (activity level), Chenopodiaceae” value with Chenopodiaceae (Dose 3000 g/ha) amounted to 10.
Consider `COc1cc(C(F)(F)F)nnc1-c1ccccc1` [D, reference compound], for which the inhibition at 300 g/ha with Veronica polita is 0%; in the test on Rorippa indica, 0 to 20%; in the test with Galium aparine, 0%; with Setaria viridis, 0%; with Chenopodiaceae, 0 to 20%; in the test on Echinochloa crus-galli, 0%.
As to `C=CCOc1cc(C(F)(F)F)nnc1-c1ccccc1` [E, reference compound], the inhibition at 300 g/ha was 0% in the test on Veronica polita; 0 to 20% in the test on Rorippa indica; 0% in the test with Galium aparine; 0% with Setaria viridis; 0 to 20% with Chenopodiaceae; 0% in the test with Echinochloa crus-galli.
With `O=C1C(Cl)C(CCl)CN1c1cccc(C(F)(F)F)c1` (centres unmarked) [Flurochloridone], the pest or weed control at 100 g/ha in the test on weeds (post-emergence, 480 h, Galium aparine, 100 g a.i./ha, postemergence, 20 days after treatment, read-out: Inhibitory effect of component (ii) when applied alone at same dose) stood at 40%.
As to `Nc1c(Cl)c(F)nc(OCC(=O)O)c1Cl` [Fluroxypyr], the pest or weed control at 30 g/ha in the test on weeds (post-emergence, 480 h, Galium aparine, 30 g a.i./ha, postemergence, 20 days after treatment, read-out: Inhibitory effect of component (ii) when applied alone at same dose) stood at 40%.
As to `CNC1=C(c2cccc(C(F)(F)F)c2)C(=O)C(c2ccccc2)O1` (centres unmarked) [Flurtamone], the pest or weed control at 100 g/ha with weeds (Galium aparine, post-emergence, 480 h, read-out: Inhibitory effect of component (ii) when applied alone at same dose) was 35%.
Consider `COC(=O)c1nc(-c2ccc(Cl)c(OC)c2F)cc(N)c1Cl` [Halauxifen-methyl], for which, in the test on weeds (Abutilon theophrasti, 2 g a.i./ha, postemergence, 20 days after treatment), the “Inhibitory effect of component (ii) when applied alone at same dose” value (from here on “Inhibitory effect of component (ii)”) is on record as 40%.
With `Cn1[nH]c(C2CC2)c(C(=O)c2ccc(C(F)(F)F)c(N3CCCCC3=O)c2Cl)c1=O` [Huanbifucaotong], the “Inhibitory effect of component (ii)” value in the test on weeds (setting [1]) came to 30%.
With `CS(=O)(=O)c1cc(C(F)(F)F)ccc1C(=O)c1cnoc1C1CC1` [Isoxaflutole], the pest or weed control at 30 g/ha in the test on weeds (setting [2]) worked out at 30%.
Regarding `CS(=O)(=O)c1ccc(C(=O)C2C(=O)CCCC2=O)c(Cl)c1OCCC1OCCO1` [Lancotrione], the “Inhibitory effect of component (ii)” value with weeds (setting [3]) stood at 40%.
`Cc1cc(Cl)ccc1OCCCC(=O)O` [MCPB]: the “Inhibitory effect of component (ii)” value with weeds (Sisymbrium sophia, 200 g a.i./ha, postemergence, 20 days after treatment) is 40%.
On to `CS(=O)(=O)c1ccc(C(=O)C2C(=O)CCCC2=O)c([N+](=O)[O-])c1` [Mesotrione], for which the pest or weed control at 30 g/ha with weeds (setting [2]) was found to be 40%.
`CNc1cnn(-c2cccc(C(F)(F)F)c2)c(=O)c1Cl` [Norflurazon]: in the test on weeds (post-emergence, 480 h, Abutilon theophrasti, 300 g a.i./ha, postemergence, 20 days after treatment, read-out: Inhibitory effect of component (ii) when applied alone at same dose), the pest or weed control at 300 g/ha came out at 50%.
In the case of `Nc1c(Cl)c(Cl)nc(C(=O)O)c1Cl` [Picloram], in the test on weeds (setting [4]), the pest or weed control at 50 g/ha worked out at 40%.
Take `O=C(Nc1ccc(F)cc1)c1cccc(Oc2cccc(C(F)(F)F)c2)n1` [Picolinafen]: in the test on weeds (setting [3]), the “Inhibitory effect of component (ii)” value is 30%.
As for `Cc1nn(C)c(O)c1C(=O)c1ccc(C(F)(F)F)cc1S(C)(=O)=O` [Pyrasulfotole], the “Inhibitory effect of component (ii)” value with weeds (Abutilon theophrasti, 15 g a.i./ha, postemergence, 20 days after treatment) was determined as 50%.
As to `O=C(O)c1c(Cl)ccc2cc(Cl)cnc12` [Quinclorac], the pest or weed control at 50 g/ha in the test with weeds (post-emergence, 480 h, Galium aparine, 50 g a.i./ha, postemergence, 20 days after treatment, read-out: Inhibitory effect of component (ii) when applied alone at same dose) came out at 50%.
Turning to `Cc1nn(C)cc1C(=O)Oc1c(C(=O)c2ccc(C(F)(F)F)cc2S(C)(=O)=O)c(C)nn1C` [Shuangzuocaotong], in the test with weeds (Sisymbrium sophia, 5 g a.i./ha, postemergence, 20 days after treatment), the “Inhibitory effect of component (ii)” value was 40%.
Consider `CS(=O)(=O)c1ccc(C(=O)C2C(=O)CCCC2=O)c(Cl)c1` [Sulcotrione], for which, in the test with weeds (Abutilon theophrasti, post-emergence, 480 h, read-out: Inhibitory effect of component (ii) when applied alone at same dose), the pest or weed control at 50 g/ha turned out to be 30%.
On to `CS(=O)(=O)c1ccc(C(=O)C2C(=O)CCCC2=O)c(Cl)c1COCC1CCCO1` (centres unmarked) [Tefuryltrione], for which the “Inhibitory effect of component (ii)” value with weeds (setting [3]) came out at 40%.
For the compound `CS(=O)(=O)c1ccc(C(=O)C2C(=O)CCCC2=O)c(Cl)c1COCC(F)(F)F` [Tembotrione], the pest or weed control at 15 g/ha in the test with weeds (post-emergence, 480 h, Abutilon theophrasti, 15 g a.i./ha, postemergence, 20 days after treatment, read-out: Inhibitory effect of component (ii) when applied alone at same dose) is 30%.
As to `CCn1ncc(C(=O)c2ccc(S(C)(=O)=O)c(OCCOC)c2C)c1OC(C)OC(=O)OC` (centres unmarked) [Tolpyralate], the “Inhibitory effect of component (ii)” value in the test with weeds (setting [5]) came to 50%.
Regarding `Cc1c(C(=O)c2cnn(C)c2O)ccc(S(C)(=O)=O)c1C1=NOCC1` [Topramezone], the “Inhibitory effect of component (ii)” value in the test on weeds (setting [5]) turned out to be 40%.
`O=C(O)COc1nc(Cl)c(Cl)cc1Cl` [Trichlopyr]: the “Inhibitory effect of component (ii)” value with weeds (setting [3]) came out at 40%.
On to `O=C(O)COc1nc(Cl)c(Cl)cc1Cl` [Triclopyr], for which the pest or weed control at 50 g/ha with weeds (setting [4]) was 35%.
For the compound Fluridone, the “Inhibitory effect of component (ii)” value in the test with weeds (Abutilon theophrasti, 100 g a.i./ha, postemergence, 20 days after treatment) turned out to be 45%.
